Among the data in PubChem BioAssay (NCI) are GI50 and TGI values, retold here.

Test systems include COLO 205 colon; KM12 colon; OVCAR-8 ovarian; SF-268 CNS; SK-MEL-2 melanoma; SK-MEL-5 melanoma; SNB-75 CNS; UACC-257 melanoma; HL-60(TB) leukemia; SR leukemia.
What all share (experiment): DTP human tumour cell line panel, 48 h

Structures are written as SMILES.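 Dose response: 5 concentrations. Exposure: 48 h. Format: 96-well plates. Endpoint: linear interpolation; highest concentration if not reached. GI50 marks 50% less growth. TGI denotes the concentration required for complete inhibition of growth.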

As a reminder, the GI50 is the concentration giving 50% growth inhibition. The TGI is the concentration at which net growth stops. A lower TGI goes with greater sensitivity of the cells. With `O=C(Cc1csc2nc(-c3ccc(Br)cc3)cn12)N/N=C/c1ccc(Cl)cc1Cl`, the GI50 with COLO 205 colon is 75 µM; in the test with KM12 colon it was 38.2 µM; with OVCAR-8 ovarian it was 18.6 µM; in the test on SF-268 CNS it was greater than 100 µM; with SK-MEL-2 melanoma it was 72 µM; in the test on SK-MEL-5 melanoma, 44.2 µM. Also, the values for the GI50 in the test with SNB-75 CNS and in the test with UACC-257 melanoma were 37.5 µM and 68.9 µM, respectively. The TGI was greater than 100 µM in the test with COLO 205 colon; greater than 100 µM in the test with KM12 colon; 50.3 µM in the test with OVCAR-8 ovarian; greater than 100 µM in the test on SF-268 CNS; greater than 100 µM in the test on SK-MEL-2 melanoma; greater than 100 µM in the test with SK-MEL-5 melanoma. Further, the TGI in the test on SNB-75 CNS and with UACC-257 melanoma was greater than 100 µM throughout.
For the compound `c1ccc2c(c1)Sc1ccccc1N2C1CN2CCC1CC2` (centres undefined), the TGI amounted to 34.5 µM in the test on COLO 205 colon; 32 µM in the test with HL-60(TB) leukemia; 33.9 µM in the test on KM12 colon; 32.5 µM in the test on OVCAR-8 ovarian; 63 µM with SF-268 CNS; 16.8 µM in the test with SK-MEL-2 melanoma. The TGI in the test with SK-MEL-5 melanoma amounted to 29.9 µM; in the test on SNB-75 CNS, 25.4 µM; in the test on UACC-257 melanoma, 31.8 µM.
Take `Nc1c(C(=O)NC23CC4CC(CC(C4)C2)C3)[n+]([O-])c2ccccc2[n+]1[O-]`: the concentration for total growth inhibition (TGI) with COLO 205 colon, in the test on HL-60(TB) leukemia, in the test with KM12 colon, with OVCAR-8 ovarian, with SF-268 CNS and in the test with SK-MEL-2 melanoma was greater than 100 µM in each case. Besides, the TGI with SK-MEL-5 melanoma, in the test on SNB-75 CNS and with UACC-257 melanoma was greater than 100 µM in each case.
As to `O=C(O)c1cn(C2CC2)c2cc(N3CCNCC3)c(F)cc2c1=O`, the GI50 in the test on COLO 205 colon, with KM12 colon, in the test on OVCAR-8 ovarian, in the test on SK-MEL-5 melanoma and in the test with UACC-257 melanoma was greater than 100 µM throughout. The TGI with COLO 205 colon, in the test on KM12 colon, with OVCAR-8 ovarian, in the test with SK-MEL-5 melanoma and in the test on UACC-257 melanoma was greater than 100 µM each time.
On to `O=C(Oc1ccccc1Cl)c1ccccc1Nc1cccc(C(F)(F)F)c1`, for which the GI50 with COLO 205 colon is 28 µM; in the test on KM12 colon it was 19.6 µM; in the test with OVCAR-8 ovarian, 32 µM; in the test with SF-268 CNS, 20.5 µM; with SK-MEL-2 melanoma it was 20.9 µM; in the test with SK-MEL-5 melanoma it was 14.8 µM. Also, the GI50 was 43.1 µM in the test on SNB-75 CNS and 26.4 µM in the test on UACC-257 melanoma. For the same compound, the total growth inhibition concentration (TGI) is greater than 100 µM in the test with COLO 205 colon; 44.6 µM with KM12 colon; greater than 100 µM with OVCAR-8 ovarian; 60.6 µM with SF-268 CNS; greater than 100 µM with SK-MEL-2 melanoma; 30.8 µM in the test with SK-MEL-5 melanoma. The TGI was greater than 100 µM with SNB-75 CNS and 76 µM with UACC-257 melanoma.
As to `CCOc1cc2c(=O)oc3c(OC)ccc4ccc(c1OC)c2c43`, the concentration for total growth inhibition (TGI) is greater than 100 µM in the test with COLO 205 colon; greater than 100 µM in the test with HL-60(TB) leukemia; greater than 100 µM in the test with KM12 colon; 79.3 µM in the test with OVCAR-8 ovarian; greater than 100 µM in the test with SF-268 CNS; greater than 100 µM in the test on SK-MEL-2 melanoma. The TGI in the test on SK-MEL-5 melanoma, with SNB-75 CNS and in the test on UACC-257 melanoma was greater than 100 µM throughout.
Take `C[N+](C)(C)CC(=O)N/N=C(/Cc1nc2ccc([N+](=O)[O-])cc2[nH]c1=O)C(=O)Nc1cc(C(F)(F)F)ccc1Cl`: the total growth inhibition concentration (TGI) in the test on COLO 205 colon, with HL-60(TB) leukemia, in the test with KM12 colon, in the test on OVCAR-8 ovarian, in the test with SF-268 CNS and in the test on SK-MEL-2 melanoma was greater than 100 µM each time. The concentration for total growth inhibition (TGI) in the test with SK-MEL-5 melanoma, in the test with SR leukemia and in the test on UACC-257 melanoma was greater than 100 µM in each case.
As for `C[N+](C)(C)CC(CC(=O)[O-])C1CC1` (centres undefined), the TGI with COLO 205 colon, with HL-60(TB) leukemia, in the test with KM12 colon, with OVCAR-8 ovarian, in the test with SF-268 CNS and in the test with SK-MEL-2 melanoma was greater than 100 µM in each case. Moreover, the total growth inhibition concentration (TGI) in the test on SK-MEL-5 melanoma, in the test on SNB-75 CNS and with UACC-257 melanoma was greater than 100 µM throughout.
On to `CC(=O)Nc1ccc(-c2csc(Nc3cccc(-c4csc(-c5ccccc5)n4)c3)n2)cc1`, for which the GI50 in the test with COLO 205 colon is 24.2 µM; in the test on HL-60(TB) leukemia, 29.7 µM; in the test with KM12 colon, 24 µM; in the test with OVCAR-8 ovarian, 15.6 µM; in the test on SF-268 CNS it was 20 µM; with SK-MEL-2 melanoma, 16.4 µM. For the same compound, the GI50 is 18.7 µM in the test with SK-MEL-5 melanoma, 27.3 µM with SR leukemia and 19 µM in the test with UACC-257 melanoma. Further, the TGI with COLO 205 colon, in the test with HL-60(TB) leukemia, in the test on KM12 colon, in the test with OVCAR-8 ovarian, in the test with SF-268 CNS and in the test with SK-MEL-2 melanoma was greater than 50 µM throughout. For the same compound, the concentration for total growth inhibition (TGI) with SK-MEL-5 melanoma, in the test with SR leukemia and in the test on UACC-257 melanoma was greater than 50 µM in each case.
Take `COc1ccc(-n2cc(-c3cc(OC)c(OC)c(OC)c3)[nH]c2=S)cc1Cl`: the GI50 in the test with COLO 205 colon is 70.8 µM; with HL-60(TB) leukemia, greater than 100 µM; in the test on KM12 colon, greater than 100 µM; with OVCAR-8 ovarian it was 50.2 µM; with SF-268 CNS, 18.3 µM; in the test with SK-MEL-2 melanoma, greater than 100 µM. Further, the GI50 was 27.2 µM with SK-MEL-5 melanoma, 18.6 µM in the test on SNB-75 CNS and greater than 100 µM in the test with UACC-257 melanoma. The concentration for total growth inhibition (TGI) is greater than 100 µM in the test with COLO 205 colon; greater than 100 µM in the test with HL-60(TB) leukemia; greater than 100 µM in the test with KM12 colon; greater than 100 µM with OVCAR-8 ovarian; 50.3 µM in the test with SF-268 CNS; greater than 100 µM in the test on SK-MEL-2 melanoma. Moreover, the TGI in the test with SK-MEL-5 melanoma was greater than 100 µM; in the test on SNB-75 CNS, 48.7 µM; in the test with UACC-257 melanoma, greater than 100 µM.
With `CN(C(=O)C12C3C4C1C1C2C3C41C(O)C(C)(C)C)C(C)(C)C` (centres undefined), the TGI in the test with COLO 205 colon, in the test on HL-60(TB) leukemia, with KM12 colon, in the test on OVCAR-8 ovarian, in the test on SF-268 CNS and in the test with SK-MEL-2 melanoma was greater than 100 µM each time. For the same compound, the total growth inhibition concentration (TGI) in the test on SK-MEL-5 melanoma, with SNB-75 CNS and in the test with UACC-257 melanoma was greater than 100 µM each time.
Regarding `CCOC(=O)C(=O)Nc1ccccc1OCC`, the TGI in the test with HL-60(TB) leukemia, with KM12 colon, in the test on OVCAR-8 ovarian, in the test on SF-268 CNS, in the test with SK-MEL-2 melanoma and in the test with SK-MEL-5 melanoma was greater than 100 µM in each case. Moreover, in the test on UACC-257 melanoma, the TGI was greater than 100 µM.
